Reference: PMC10120551, “Novel Glu-based pyrazolo[3,4-d]pyrimidine analogues: design, synthesis and biological evaluation as DHFR and TS dual inhibitors” (Journal of Enzyme Inhibition and Medicinal Chemistry, 2023)

Experiments:
[1] = system: full panel of 59 cancer cells; assay: NCI one-dose screen (SRB), full panel; type: cell-based, human; conditions: mean over full panel of 59 cell lines, 10 µM single dose; for inhibition at 10 µM: Homo sapiens, read-out: MGI% (mean growth inhibition percentage)
Experimental: The growth percentage (G%) and cell viability of the herein target compounds 6a–l, 7a,b, and 9a–c have been screened towards a full panel of 59 cancer cells at NCI’s Developmental Therapeutics Program (NCI-DTP, MD, USA)[21]. The submitted analogues were initially examined for preliminary in vitro anticancer activity using sulforhodamine B (SRB) assay at 10 µM as a single dose to evaluate cell growth and viability according to the procedure of Drug Evaluation Branch[22]^,[23].
Different types of tumours – colon, NSCLC, leukaemia, CNS, renal, breast, ovarian, melanoma, and prostate cancers – were investigated as a full panel of 59 cell lines, and the attained results are cited in Figures S1–S17 (see Supplementary Material) where the value recorded is the growth relative to that of both the negative control and zero-time number of cells in which both growth inhibition (GI%; 0–100%) and lethality (L%; 0–100%) percentages can be identified. The growth inhibition means percentages (MGI%) for the examined target analogues towards the different treated 59 cancer cells were presented in Figure 2.
The designed analogues were submitted to NCI-Chemotherapeutic Agents Repository (MD, USA) for screening on a panel of 59 cancer cell lines. All compounds were initially examined at 10 µM concentration (Single-Dose Screen), and then the most efficient analogue 6i was screened further at 0.01–100 µM (Five-Dose Screen). The screening procedures were performed according to NCI-Drug Evaluation Branch protocol using SRB protein assay, as described previously[21]^,[66]. The experimental procedures were detailed in the Supporting Information.

[2] = system: HSF (Normal human skin fibroblast) cells; assay: MTT cytotoxicity assay; type: cell-based; conditions: HSF normal fibroblasts, 48 h, mean ± SD from triplicates
Experimental: The results hinted that 6i elicited stronger cytotoxicity and higher selectivity for cancer than normal cells.
(§1) The MTT assay was carried out according to the procedure cited earlier. Briefly, in a 96-well plate, either cancer or normal cells were seeded (10^6 cells/cm^2; 100 µL/well) and incubated for 12 h at 37 °C and CO2 (5%), then serial dilutions of compound 6i were added and incubated for 48 h using DMSO control (0.5% V/V). MTT (3-(4,5-dimethylthiazoyl)-2,5-diphenyl-tetrazolium bromide; Cat. No. M-5655) 5 mg/mL was then added. After 4 h incubation, the formed MTT formazan crystals were solubilised by 10% Triton X-100 plus 0.1 N HCl in anhydrous isopropanol. The absorbance was read using a Bioline plate reader at λ570–630 nm[25–29]. The selectivity of 6i towards HSF cells was also determined as follows[30]^,[31]: SI=IC50HSF cells/IC50of cancer cells

PC-3 (Prostate cancer) = assay: MTT cytotoxicity assay; type: cell-based, human; conditions: Homo sapiens; PC-3; MTT, 48 h; mean ± SD from triplicates
Experimental: as §1

OVCAR-3 (Ovarian Cancer) = assay: MTT cytotoxicity assay; type: cell-based, human; conditions: Homo sapiens, OVCAR-3, 48 h, OVCAR-3; MTT, 48 h; mean ± SD from triplicates
Experimental: as §1

MCF-7 (Breast cancer) = assay: MTT cytotoxicity assay; type: cell-based, human; conditions: Homo sapiens, MCF7; MCF-7; MTT, 48 h; mean ± SD from triplicates
Experimental: as §1

CCOC(=O)CC[C@H](NC(=O)c1ccc(NC(=O)CSC2=NC(C)=C(C(=O)OCC)[C@@H](c3ccc(Cl)cc3)N2)cc1)C(=O)OCC [Compound 9b]
inhibition at 10 µM [1]: 33.9%

CCOC(=O)CC[C@H](NC(=O)c1ccc(NC(=O)CSC2=NC(C)=C(C(=O)OCC)[C@@H](c3ccc(Br)cc3)N2)cc1)C(=O)OCC [Compound 9c]
inhibition at 10 µM [1]: 36.9%

CCOC(=O)CC[C@H](NC(=O)c1ccc(NC(=O)Cn2cnc3c(c(SC)nn3-c3ccc(Br)cc3)c2=O)cc1)C(=O)OCC [Compound 6k]
MGI% (mean growth inhibition percentage) [1]: failed to demonstrate MGI%

CN(Cc1cnc2nc(N)nc(N)c2n1)c1ccc(C(=O)N[C@@H](CCC(=O)O)C(=O)O)cc1 [MTX, methotrexate, reference compound]
IC50 [2]: 13.7 ± 0.69 µM | IC50 (PC-3 (Prostate cancer)): 2.72 ± 0.14 µM | IC50 (OVCAR-3 (Ovarian Cancer)): 6.31 ± 0.32 µM | IC50 (MCF-7 (Breast cancer)): 0.58 ± 0.03 µM
